Tests used:
[1] = system: ds26 (DNA, duplex) CAATCGGATCGAATTCGATCCGATTG; assay: FRET melting competition; settings: ds26 (2 μM, 10-fold excess) as competitor of 0.2 μM labelled PS2.M; 3 μM compound; no significant change
[2] = system: PS2.M 5'-side loop n=1 (DNA, G4) GTGGGAGGGCGGGTTGG; assay: luminescence enhancement; settings: 4.2-fold emission enhancement
[3] = system: CCR5-DEL (DNA, single strand) CTCATTTTCCATACATTAAAGATAGTCAT; assay: luminescence enhancement; settings: 1 μM compound, 5 μM DNA, 10 mM Tris, pH 7.4
[4] = system: FPS2.MT (labelled PS2.M) (DNA, G4) GTGGGTAGGGCGGGTTGG; assay: FRET melting; settings: not printed (procedure from ref. 50); 3 μM compound, 0.2 μM DNA
[5] = system: PS2.M 5'-side loop n=17 (DNA, G4) GTGGGTTTTTTTTATTTTTTTTGGGCGGGTTGG; assay: luminescence enhancement; settings: 9.2-fold emission enhancement
[6] = system: HP1 (DNA, hairpin) GGTACGTGGCTGAGGCCAGTGGGTAGGGCGGGTTGGCCTCAGCCACGTACC; assay: luminescence enhancement; settings: 1.1-fold emission enhancement
[7] = system: HP5 (DNA, hairpin) ACGTGGCTGAGGCCAGTGGGTAGGGCGGGTTGGCCTCAGCCACGT; assay: luminescence enhancement; settings: HP5 formed in assay without Nt.BbvCI
[8] = system: F10T (DNA, hairpin, hexaethylene glycol (HEG) linker between nucleotides 8 and 9) TATAGCTATATAGCTATAT; assay: FRET melting; settings: 3 μM compound, 0.2 μM DNA; no significant variation
[9] = system: PS2.M (DNA, G4) GTGGGTAGGGCGGGTTGG; assay: fluorescent intercalator displacement (G4-FID); settings: Tris-HCl buffer; thiazole orange displaced

[Ir+3].[Ir+3].[c-]1ccccc1-c1ccc2ccccc2n1.[c-]1ccccc1-c1ccc2ccccc2n1.[c-]1ccccc1-c1ccc2ccccc2n1.[c-]1ccccc1-c1ccc2ccccc2n1.c1ccc(N(CCCCCN(c2ccccn2)c2ccccn2)c2ccccn2)nc1
binding [1]: weak | binding [2]: yes | binding [3]: weak | ΔTm [4]: ~ 12 °C | binding [5]: yes | binding [6]: weak | binding [7]: weak | binding [8]: no | G4DC50 [9]: 7.0 µM
